Series [1] relates to Phytophthora infestans (Mont) de Bary. Description: microbe, parasite or virus in culture. Type of series: cell-based. To be noted: Phytophthora infestans.
Series [2] relates to tobacco mosaic virus (TMV). Description: Anti-TMV inactivation activity (inactivation mode), compound mixed with TMV before inoculation of tobacco leaves. Type of series: in vivo. Particulars: Tobacco mosaic virus, read-out: Anti-TMV activity, Inactivation effect (inhibition).
Series [3] has as its system tobacco mosaic virus (TMV). Kind of series: Anti-TMV protective activity (protection mode), live friction inoculation on tobacco seedlings. Type of series: in vivo. Particulars: Tobacco mosaic virus, read-out: Anti-TMV activity, Protection effect (inhibition).
The test system of the next series is Cercospora arachidicola. Description: Fungicidal activity, fungi growth rate method, CA. Type of series: cell-based. To be noted: Mycosphaerella arachidis; 50 μg/mL; read-out: Fungicidal activity, inhibition, CA.
The test system of another series is Sclerotinia sclerotiorum. Kind of series: microbe, parasite or virus in culture. To be noted: Sclerotinia sclerotiorum, 50 μg/mL. The format is cell-based.
In the next series the test system is Pellicularia sasakii. Kind of series: Fungicidal activity, fungi growth rate method, PS. The format is cell-based. Particulars: 50 μg/mL; read-out: Fungicidal activity, inhibition, PS.
For another series, the system named is Rhizoctonia cerealis. Kind of series: Fungicidal activity, fungi growth rate method, RC. The format is cell-based. To be noted: Ceratobasidium cereale, 50 μg/mL.
Series [4] relates to tobacco mosaic virus (TMV). Kind of series: Anti-TMV inducing activity (induction mode), tobacco seedlings. Particulars: Tobacco mosaic virus, read-out: Anti-TMV activity, Induction effect (inhibition), 100 μg/mL, tobacco seedlings. Type of series: in vivo.
Another series has as its system Alternaria solani. Description: Fungicidal activity, fungi growth rate method, AS. The format is cell-based. Particulars: Alternaria solani, 50 μg/mL.
Series [5] has as its system tobacco mosaic virus (TMV). Kind of series: Anti-TMV curative activity (treatment mode), live friction inoculation on tobacco seedlings. Type of series: in vivo. To be noted: Tobacco mosaic virus, read-out: Anti-TMV activity, Curative effect (inhibition), 100 μg/mL, tobacco seedlings, checked on seventh day.
The next series concerns wheat Gibberella zeae. Kind of series: microbe, parasite or virus in culture. The format is cell-based. To be noted: Fusarium graminearum.
Another series has as its system Botrytis cinerea. Description: Fungicidal activity, fungi growth rate method, BC. The format is cell-based. Particulars: Botrytis cinerea, 50 μg/mL.
The next series has as its system Physalospora piricola. Kind of series: Fungicidal activity, fungi growth rate method, PP. The format is cell-based. Particulars: 50 μg/mL; read-out: Fungicidal activity, inhibition, PP.
[6] abbreviates: read-out: Fungicidal activity, inhibition, PI.
[7] abbreviates: read-out: Fungicidal activity (inhibition) against SS: Sclerotinia sclerotiorum.
The mark [8] stands for this setting: read-out: Fungicidal activity, inhibition, SS.
Setting [9] is: read-out: Fungicidal activity, inhibition, RC.
Setting [10] is: read-out: Fungicidal activity, inhibition, AS.
The mark [11] stands for this setting: read-out: Fungicidal activity, inhibition, GZ.
[12] abbreviates: read-out: Fungicidal activity, inhibition, BC.
[13] abbreviates: read-out: Fungicidal activity (inhibition) against PI: Phytophthora infestans (Mont) de Bary.
Where [14] appears, read: read-out: Fungicidal activity (inhibition) against BC: Botrytis cinerea.

Where two headings read alike, the source gives them in different places.

The term melting point denotes the temperature, or range, at which the solid turns liquid.

`CC(C)(C)OC(=O)N1CCC(c2nc(/C=C3\N=C(c4ccccc4)OC3=O)cs2)CC1` [Compound 73] showed a melting point of 189 to 191 °C. Also, the inhibition at 50 µg/mL in series [1] (setting [6]) was 24%. In [2], the inhibition at 100 µg/mL is 59%. Also, the inhibition at 100 µg/mL in series [3] was found to be 11%. Besides, in the series with Cercospora arachidicola, the inhibition at 50 µg/mL was found to be 16%. In addition, the inhibition at 50 µg/mL in the series with Sclerotinia sclerotiorum (setting [7]) is 80 to 95%. The inhibition at 50 µg/mL in the series with Sclerotinia sclerotiorum (setting [8]) is 89%. In addition, the inhibition at 50 µg/mL in the series with Pellicularia sasakii turned out to be 20%. For the same compound, the inhibition at 50 µg/mL with Rhizoctonia cerealis (setting [9]) was 24%. For the same compound, the inhibition at 100 µg/mL in series [4] was 8%. Further, the inhibition at 50 µg/mL in the series on Alternaria solani (setting [10]) was 36%. For the same compound, in series [5], the inhibition at 100 µg/mL turned out to be 0%. Further, the inhibition at 50 µg/mL with wheat Gibberella zeae (setting [11]) was 23%. Also, the inhibition at 50 µg/mL in the series with Botrytis cinerea (setting [12]) turned out to be 10%. The inhibition at 50 µg/mL with Physalospora piricola was 19%.

The compound `CC(C)(C)OC(=O)N1CCC(c2nc(/C=C(\NC(=O)c3ccccc3)C(=O)O)cs2)CC1` [Compound 74, (Z)-2-benzoylamino-3-[4-[2-[4-(1-Boc-piperidine)]thiazol]]propenoic acid] had a melting point of 125 to 127 °C. Also, in [1] (setting [13]), the inhibition at 50 µg/mL was 40%. The inhibition at 50 µg/mL in [1] (setting [6]) came out at 40%. Further, the inhibition at 100 µg/mL in [2] stood at 0%. Further, in series [3], the inhibition at 100 µg/mL came to 48%. For the same compound, the inhibition at 50 µg/mL with Cercospora arachidicola is 39%. In addition, the inhibition at 50 µg/mL in the series with Sclerotinia sclerotiorum (setting [7]) was in the range of 80 to 95%. Besides, in the series on Sclerotinia sclerotiorum (setting [8]), the inhibition at 50 µg/mL was found to be 89%. In the series on Pellicularia sasakii, the inhibition at 50 µg/mL was 38%. Also, the inhibition at 50 µg/mL in the series with Rhizoctonia cerealis (read-out: Fungicidal activity (inhibition) against RC: Rhizoctonia cerealis) amounted to 44%. The inhibition at 50 µg/mL with Rhizoctonia cerealis (setting [9]) came to 44%. In addition, the inhibition at 100 µg/mL in series [4] was found to be 63%. Besides, in the series on Alternaria solani (setting [10]), the inhibition at 50 µg/mL is 36%. In addition, the inhibition at 100 µg/mL in series [5] was found to be 3%. Besides, the inhibition at 50 µg/mL in the series with wheat Gibberella zeae (setting [11]) amounted to 42%. The inhibition at 50 µg/mL in the series on Botrytis cinerea (setting [14]) was determined as 41%. Moreover, in the series on Botrytis cinerea (setting [12]), the inhibition at 50 µg/mL turned out to be 41%. In addition, the inhibition at 50 µg/mL in the series on Physalospora piricola worked out at 32%.

On to `Cc1nnsc1/C=C1\N=C(c2ccccc2)OC1=O` [Compound 77, (4Z)-4-[5-(4-methyl-1,2,3-thiadiazol)ethenyl]-2-phenyl-1,3-oxazol-5-(4H)-one], for which the melting point lay within 196 to 198 °C. In addition, the inhibition at 50 µg/mL in [1] (setting [6]) amounted to 16%. For the same compound, the inhibition at 100 µg/mL in [2] is 0%. The inhibition at 100 µg/mL in [3] was 40%. Also, in the series on Cercospora arachidicola, the inhibition at 50 µg/mL was 24%. Moreover, the inhibition at 50 µg/mL in the series on Sclerotinia sclerotiorum (setting [7]) worked out at 47%. For the same compound, the inhibition at 50 µg/mL in the series on Sclerotinia sclerotiorum (setting [8]) worked out at 47%. Further, the inhibition at 50 µg/mL in the series with Pellicularia sasakii worked out at 14%. Moreover, the inhibition at 50 µg/mL with Rhizoctonia cerealis (setting [9]) was found to be 23%. In addition, the inhibition at 100 µg/mL in series [4] came to 44%. For the same compound, the inhibition at 50 µg/mL in the series on Alternaria solani (setting [10]) stood at 11%. Also, the inhibition at 100 µg/mL in [5] is 0%. Also, the inhibition at 50 µg/mL in the series with wheat Gibberella zeae (setting [11]) was 43%. Moreover, the inhibition at 50 µg/mL in the series with Botrytis cinerea (setting [12]) was determined as 12%. Also, the inhibition at 50 µg/mL in the series with Physalospora piricola amounted to 6%.

On to `Cc1snnc1/C=C1\N=C(c2ccccc2)OC1=O` [Compound 78, (4Z)-4-[4-(5-methyl-1,2,3-thiadiazol)ethenyl]-2-phenyl-1,3-oxazol-5-(4H)-one], for which the melting point was 149 to 151 °C. For the same compound, in [1] (setting [13]), the inhibition at 50 µg/mL is 26%. In addition, the inhibition at 50 µg/mL in series [1] (setting [6]) is 26%. Further, in series [2], the inhibition at 100 µg/mL turned out to be 47%. Also, the inhibition at 100 µg/mL in series [3] stood at 0%. For the same compound, in the series on Cercospora arachidicola, the inhibition at 50 µg/mL stood at 21%. The inhibition at 50 µg/mL in the series on Sclerotinia sclerotiorum (setting [8]) was found to be 53%. Further, in the series with Pellicularia sasakii, the inhibition at 50 µg/mL amounted to 3%. The inhibition at 50 µg/mL with Rhizoctonia cerealis (setting [9]) is 18%. Besides, the inhibition at 100 µg/mL in series [4] came to 68%. Besides, in the series with Alternaria solani (read-out: Fungicidal activity (inhibition) against AS: Alternaria solani), the inhibition at 50 µg/mL was 29%. Besides, the inhibition at 50 µg/mL with Alternaria solani (setting [10]) is 29%. Further, in series [5], the inhibition at 100 µg/mL is 0%. Also, in the series with wheat Gibberella zeae (read-out: Fungicidal activity (inhibition) against GZ: wheat Gibberella zeae), the inhibition at 50 µg/mL is 57%. Moreover, the inhibition at 50 µg/mL in the series with wheat Gibberella zeae (setting [11]) came out at 57%. Also, the inhibition at 50 µg/mL in the series with Botrytis cinerea (setting [14]) came out at 26%. Moreover, in the series on Botrytis cinerea (setting [12]), the inhibition at 50 µg/mL was 26%. In addition, in the series with Physalospora piricola, the inhibition at 50 µg/mL turned out to be 15%.
